Reference: patent publication US8992891B2, “Therapeutic approaches for treating CMT and related disorders” (Pharnext, priority 2007, dated 2015)

Key:
[1] = test system: hemizygous PMP22 transgenic rat (CMT rat); assay: Electrophysiological evaluation in CMT transgenic rats; type: in vivo; settings: versus TG placebo group; for potential amplitude measured on the distal portion of the tail: CMT rats treated during 20 weeks
Description: When appropriate, the rats are subjected to electrophysiological evaluation and histological measurement.

PMP22 mRNA = PMP22 mRNA level by quantitative RT-PCR after drug stimulation of rat Schwann cell primary culture; type: cell-based; set-up: key: +: significantly decreases PMP22 levels compared to control; settings: rat primary Schwann cells, drug incubation 24 hrs
Procedure: After cells being platted in 12 well-dishes, the medium is replaced by a defined medium consisting in a mix of DMEM-F12 (Invitrogen #21331020) complemented by 1% of N2 supplement (Invitrogen #17502), 1% L-Glutamine (Invitrogen #25030024) 2.5% FBS (Sciencell #0025), 0.02 μg/ml of corticosterone (Sigma #C2505), 4 μM Forskolin and 50 μg/ml of gentamycin. Growth factors are not added to this medium, to promote SC differentiation
24 hours later, the medium is replaced by a defined medium (DMEM-F12) complemented with 1% Insulin-Transferrin-Selenium-X (ITS, Invitrogen #51300), 16 μg/ml of Putrescine (Sigma #P5780), 0.02 μg/ml of corticosterone and 50 μg/ml of gentamicin. At this step, neither progesterone nor forskolin are present in the medium.
One day later, Schwann cells are stimulated by combinations of drugs or drugs alone during 24 hrs (3 wells/condition). The preparation of each compound is performed just prior to its addition to the cell culture medium.
Drugs are added to a defined medium composed of DMEM-F12, with 1% Insulin-Transferrin-Selenium-X (ITS, Invitrogen #51300), 16 μg/ml of Putrescine, 0.02 μg/ml of corticosterone, 10 nM Progesterone and 50 μg/ml of gentamicin. The absence of Forskolin during drug stimulation avoids adenylate cyclase saturation.
Quantitative RT-PCR is used to compare the levels of PMP22 mRNA after drug stimulation, relative with housekeeping Ribosomal L13A mRNA in rat Schwann cell primary culture.
After rinsing with cold sterilized PBS, total RNAs from each cell sample are extracted and purified from SC using the Qiagen RNeasy micro kit (Qiagen #74004). Nucleic acids are quantified by Nanodrop spectrophotometer using 1 μl of RNA sample. The RNA integrity is determined through a BioAnalyzer (Agilent) apparatus.
RNAs are reverse-transcribed into cDNA according to standard protocol. cDNA templates for PCR amplification are synthesized from 200 ng of total RNA using SuperScript II reverse-transcriptase (Invitrogen #18064-014) for 60 min at 42° C. in the presence of oligo(dT), in a final volume of 20 μl.
cDNAs are subjected to PCR amplification using the ? LightCycler® 480 ? system (Roche Molecular Systems Inc.) Each cDNA are diluted five times before being used for PCR amplification. 2.5 μl of this cDNAs enters the PCR reaction solution (final volume of 10 μl). Preliminary experiments ensured that quantitation was done in the exponential phase of the amplification process for both sequences and that expression of the reference gene was uniform in the different culture conditions.
PCR reaction is performed by amplification of 500 nM of forward primer of rat PMP22 (NM_017037), 5-GGAAACGCGAATGAGGC-3 (SEQ ID NO: 1), and 500 nM of reverse primer 5-GTTCTGTTTGGTTTGGCTT-3 (SEQ ID NO: 2) (amplification of 148-bp). A 152-bp fragment of the RPL13A ribosomal (NM_173340) RNA is amplified in parallel in separate reactions for normalization of the results by using 500 nM of forward primer 5-CTGCCCTCAAGGTTGTG-3 (SEQ ID NO: 3), and 500 nM of reverse primer 5-[…]-3 (SEQ ID NO: 4).
We used FRET chemistry to perform RT-Q-PCR analysis. FRET probes are composed of 0.3 μM of Pmp22-FL-5-[…] (SEQ ID NO: 5) or Rpl13A-FL-5-TCGGGTGGAAGTACCAGCC (SEQ ID NO: 6), labelled at their 3′ end with a donor fluorophore dye (Fluorescein). 0.15 μM Red640 probes are defined as follows: Pmp22-red-5′-[…]- (SEQ ID NO: 7) or Rpl13A-red-5′-[…] (SEQ ID NO: 8), labelled at their 5′ end with an acceptor fluorophore dye (Rhodamine Red 640).
Each PCR reaction contained 2.5 μl cDNA template in a final volume of 10 μl of master mix kit (Roche #04-887301001).
The following PCR conditions are used: 10 sec at 95° C., 10 sec at 63° C. and 12 sec at 72° C. and 30 sec at 40° C. (Forty amplification cycles). The relative levels of PMP22 gene expression is measured by determining the ratio between the products generated from the target gene PMP22 and the endogenous internal standard RPL13A. […]

SMILES | potential amplitude measured on the distal portion of the tail [1] | nerve conduction velocity (NCV) ([1]; CMT rats) | mRNA (PMP22 expression decrease) (PMP22 mRNA)
Cn1cc[nH]c1=S [Methimazole] | significantly improved | not significantly affected | +
CC[C@@H]1C(=O)OC[C@@H]1Cc1cncn1C [Pilocarpine] | failed to reach statistical significance | – | +
